Results on one compound are retold here after ChEMBL document CHEMBL2074373, “Effect of the Mdr1a P-glycoprotein gene disruption on the tissue distribution of SDZ PSC 833, a multidrug resistance-reversing agent, in mice” (J Pharmacol Exp Ther, 1998).

The data set deals with ATP-dependent translocase ABCB1 (Mus musculus, UniProt P21447). Put plainly: TP_TRANSPORTER: increase in brain concentration in mdr1a(-/-) mouse. Particulars: in vivo. It is filed as functional, organism-based.
Sequence of ATP-dependent translocase ABCB1 (P21447 whole entry): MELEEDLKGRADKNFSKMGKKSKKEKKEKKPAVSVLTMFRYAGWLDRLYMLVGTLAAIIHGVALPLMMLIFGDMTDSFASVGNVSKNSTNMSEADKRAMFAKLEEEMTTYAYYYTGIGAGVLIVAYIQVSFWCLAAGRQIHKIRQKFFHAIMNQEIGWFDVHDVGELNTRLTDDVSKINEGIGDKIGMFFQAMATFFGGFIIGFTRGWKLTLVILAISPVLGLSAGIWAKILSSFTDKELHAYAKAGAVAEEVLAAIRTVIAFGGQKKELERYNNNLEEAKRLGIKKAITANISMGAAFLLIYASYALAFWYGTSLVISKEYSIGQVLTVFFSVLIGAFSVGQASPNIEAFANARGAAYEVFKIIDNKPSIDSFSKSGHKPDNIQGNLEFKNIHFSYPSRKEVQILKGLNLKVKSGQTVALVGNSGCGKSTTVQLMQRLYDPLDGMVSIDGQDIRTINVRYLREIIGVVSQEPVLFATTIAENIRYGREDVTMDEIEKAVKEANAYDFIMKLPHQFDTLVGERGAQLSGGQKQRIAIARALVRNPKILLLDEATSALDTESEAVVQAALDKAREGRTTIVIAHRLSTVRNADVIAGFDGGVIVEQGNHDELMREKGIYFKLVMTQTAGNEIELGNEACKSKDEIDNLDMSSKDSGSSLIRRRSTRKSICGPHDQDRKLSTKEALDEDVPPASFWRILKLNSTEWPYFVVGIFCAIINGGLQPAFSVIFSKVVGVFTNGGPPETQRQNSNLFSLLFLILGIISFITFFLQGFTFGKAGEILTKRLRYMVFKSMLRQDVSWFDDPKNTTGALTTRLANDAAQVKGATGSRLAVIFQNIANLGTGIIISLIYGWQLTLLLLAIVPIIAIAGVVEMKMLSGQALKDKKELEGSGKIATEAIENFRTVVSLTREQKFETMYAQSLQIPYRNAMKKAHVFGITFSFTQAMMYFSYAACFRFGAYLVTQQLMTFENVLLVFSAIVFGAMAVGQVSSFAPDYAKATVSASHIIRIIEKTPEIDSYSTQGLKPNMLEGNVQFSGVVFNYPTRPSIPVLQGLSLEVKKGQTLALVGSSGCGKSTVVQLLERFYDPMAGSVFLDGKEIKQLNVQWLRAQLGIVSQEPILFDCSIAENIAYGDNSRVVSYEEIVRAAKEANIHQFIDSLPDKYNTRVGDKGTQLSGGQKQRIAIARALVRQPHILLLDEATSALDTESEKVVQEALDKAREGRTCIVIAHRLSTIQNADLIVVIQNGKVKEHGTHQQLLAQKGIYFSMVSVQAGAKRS

In the case of `C/C=C/C[C@@H](C)C(=O)[C@H]1C(=O)N[C@@H](C(C)C)C(=O)N(C)CC(=O)N(C)[C@@H](CC(C)C)C(=O)N[C@@H](C(C)C)C(=O)N(C)[C@@H](CC(C)C)C(=O)N[C@@H](C)C(=O)N[C@H](C)C(=O)N(C)[C@@H](CC(C)C)C(=O)N(C)[C@@H](CC(C)C)C(=O)N(C)[C@@H](C(C)C)C(=O)N1C` [VALSPODAR], the Activity entry was “substrate [+]”.
